Data from ChEMBL document CHEMBL1671810, “Identification of a novel scaffold for allosteric inhibition of wild type and drug resistant HIV-1 reverse transcriptase by fragment library screening” (J Med Chem, 2011).
pIC50, pKd: −log10 of the molar value. Each block holds one molecule with its values, some of them ahead of it. The source made the active and inactive calls. No cut-off for these calls is given here.

Key:
[1] = molecular target: T1, Human immunodeficiency virus type 1 reverse transcriptase (Human immunodeficiency virus 1, UniProt Q72547, Y181C); test: Binding affinity to HIV1 BH10 isolate reverse transcriptase Y181C mutant expressed in Escherichia coli BL21(DE3); parameters: species or system Human immunodeficiency virus type 1 BH10
[2] = Inhibition of wild type HIV1 BH10 isolate reverse transcriptase catalytic activity expressed in Escherichia coli BL21(DE3) by UV-vis spectrophotometry; parameters: species or system Human immunodeficiency virus type 1 BH10
[3] = molecular target: T2, Human immunodeficiency virus type 1 reverse transcriptase (Human immunodeficiency virus 1, UniProt Q72547, L100I); test: Binding affinity to HIV1 BH10 isolate reverse transcriptase L100I mutant expressed in Escherichia coli BL21(DE3); parameters: species or system Human immunodeficiency virus type 1 BH10
[4] = molecular target: T3, Human immunodeficiency virus type 1 reverse transcriptase (Human immunodeficiency virus 1, UniProt Q72547, K103N); test: Inhibition of HIV1 BH10 isolate reverse transcriptase K103N mutant catalytic activity expressed in Escherichia coli BL21(DE3) by UV-vis spectrophotometry; parameters: species or system Human immunodeficiency virus type 1 BH10
[5] = molecular target: T2, Human immunodeficiency virus type 1 reverse transcriptase; test: Inhibition of HIV1 BH10 isolate reverse transcriptase L100I mutant catalytic activity expressed in Escherichia coli BL21(DE3) by UV-vis spectrophotometry; parameters: species or system Human immunodeficiency virus type 1 BH10
[6] = molecular target: T3, Human immunodeficiency virus type 1 reverse transcriptase; test: Binding affinity to HIV1 BH10 isolate reverse transcriptase K103N mutant expressed in Escherichia coli BL21(DE3); parameters: species or system Human immunodeficiency virus type 1 BH10
[7] = Binding affinity to wild type HIV1 BH10 isolate reverse transcriptase expressed in Escherichia coli BL21(DE3); parameters: species or system Human immunodeficiency virus type 1 BH10
[8] = molecular target: T1, Human immunodeficiency virus type 1 reverse transcriptase; test: Inhibition of HIV1 BH10 isolate reverse transcriptase Y181C mutant catalytic activity expressed in Escherichia coli BL21(DE3) by UV-vis spectrophotometry; parameters: species or system Human immunodeficiency virus type 1 BH10
[9] = test system: Human immunodeficiency virus type 1 BH10; test: Displacement of nevirapine from wild type HIV1 BH10 isolate reverse transcriptase expressed in Escherichia coli BL21(DE3) by competition assay

Structure (SMILES): O=C1CCc2c(Br)cccc21
- pKd [1]: 4.40
- pIC50 [2]: 5.40
- pKd [3]: 4.40
- pIC50 [4]: 4.80
- pIC50 [5]: 4.60
- pKd [6]: 4.70
- pKd [7]: 3.57
- pIC50 [8]: 4.80

Structure (SMILES): O=C1c2ccccc2CCc2ncccc21
- pKd [1]: 3.52
- pIC50 [2]: 3.37
- pKd [3]: 3.70
- pKd [6]: 4.30
- pKd [7]: 3.74

Structure (SMILES): O=C(c1ccncc1)c1ccc(Cl)cc1
- pKd [1]: 3.15
- pIC50 [2]: 4.02
- pKd [3]: 4.22
- pKd [6]: 3.22
- pKd [7]: < 3.30

Structure (SMILES): C=CCNc1scnc1S(=O)(=O)c1ccccc1
- pKd [1]: 3.70
- pIC50 [2]: 5.30
- pKd [3]: 4.05
- pKd [6]: 3.15
- pKd [7]: 3.68

Structure (SMILES): Cc1cc2c(cc1[N+](=O)[O-])OCO2
- pKd [1]: 4.00
- pIC50 [2]: 3.82
- pKd [3]: 4.40
- pKd [6]: 4.70
- pKd [7]: 4.10

Structure (SMILES): Cc1ccc(O)cc1
- Activity [9]: inactive

Structure (SMILES): CC(C)N1CCC(CCc2c[nH]cn2)CC1
- pKd [7]: 4.06

Structure (SMILES): C/C(=N\O)c1ccc2c(c1)CCC2
- pKd [1]: 4.30
- pIC50 [2]: 4.41
- pKd [3]: 3.70
- pKd [6]: 4.30
- pKd [7]: 3.52

Structure (SMILES): CCCCCCCCNC(=O)NCc1ccc(O)c(CO)c1
- pKd [7]: 3.72

- Activity [9]: inactive
Structure (SMILES): Nc1cccc(-c2ccccc2)n1

Structure (SMILES): COC(=O)C1=C(C)NC(=S)NC1C (stereo not given)
- pKd [1]: 3.15
- pIC50 [2]: 3.24
- pKd [7]: 3.42
